# Values of other authors, collected in Sander's compilation of Henry's law constants.
# Values joined by “and” are separate entries in the source; they are usually repeats but may differ in a detail not shown here. Equal entries are not always repeated.
# Experiment: Henry solubility constant Hcp at 298.15 K (mol/(m3 Pa))
# Settings: cited value
# [1] = reference: Burkholder et al. (2015)
# [2] = reference: Burkholder et al. (2019)
# [3] = reference: Sander et al. (2006)
# [4] = reference: Sander et al. (2011)
# [5] = reference: Fogg and Sangster (2003)
# [6] = reference: Barcelo and Hennion (1997)
structure (smiles),measurement,setting,value
[C-]#[O+] [carbon monoxide],Henry solubility constant Hcp,[1],9.7e-06
same,Henry solubility constant Hcp,[2],9.7e-06
same,Henry solubility constant Hcp,[3],9.7e-06
same,Henry solubility constant Hcp,[4],9.7e-06
CCOP(=O)(SC(C)CC)N1CCSC1=O (stereo unspecified) [fosthiazate-1],Henry solubility constant Hcp,reference: MacBean (2012b),75
OCCc1ccccc1 [2-phenylethanol],Henry solubility constant Hcp,reference: Brockbank (2013),17
CCCCOC(C)=O [butyl ethanoate],Henry solubility constant Hcp,reference: Brockbank (2013),0.038
same,Henry solubility constant Hcp,reference: Goldstein (1982),0.021
O=[N+]([O-])c1ccc(O)cc1 [4-nitrophenol],Henry solubility constant Hcp,reference: Goldstein (1982),9.8
CCc1cccc2ccccc12 [1-ethylnaphthalene],Henry solubility constant Hcp,reference: Brockbank (2013),0.02
same,Henry solubility constant Hcp,reference: Mackay et al. (1992b),0.026
"C=COCC(F)(F)F [(2,2,2-trifluoroethoxy)-ethene]",Henry solubility constant Hcp,[5],0.00054
CCCCCCC(C)=O [2-octanone],Henry solubility constant Hcp,reference: Brockbank (2013),0.05
c1ccccc1 [benzene],Henry solubility constant Hcp,reference: Brockbank (2013),0.0018
same,Henry solubility constant Hcp,reference: Goldstein (1982),0.0018
CC(=O)OCC(C)C [2-methylpropyl ethanoate],Henry solubility constant Hcp,reference: Brockbank (2013),0.026
CC1CCCC1 [methylcyclopentane],Henry solubility constant Hcp,reference: Brockbank (2013),2.8e-05
CC(=O)O[O] [peroxyacetyl radical],Henry solubility constant Hcp,[1],< 0.00099
same,Henry solubility constant Hcp,[2],< 0.00099
same,Henry solubility constant Hcp,[3],< 0.00099
same,Henry solubility constant Hcp,[4],< 0.00099
"Brc1ccc(Oc2ccc(Br)cc2Br)c(Br)c1 [2,2',4,4'-tetrabromodiphenyl ether]",Henry solubility constant Hcp,reference: Wania and Dugani (2003),0.9
CCCCCCCCO [1-octanol],Henry solubility constant Hcp,reference: Brockbank (2013),0.34
"CN(Cl)Cl [N,N-dichloromethylamine]",Henry solubility constant Hcp,[1],0.0033
same,Henry solubility constant Hcp,[2],0.0033
"Cc1ccc(O)c(C)c1 [1-hydroxy-2,4-dimethylbenzene]",Henry solubility constant Hcp,reference: Brockbank (2013),3.5
same,Henry solubility constant Hcp,reference: Goldstein (1982),4.1
same,Henry solubility constant Hcp,reference: Howard (1989),16
same,Henry solubility constant Hcp,reference: Petrasek et al. (1983),17
[OH] [hydroxyl radical],Henry solubility constant Hcp,reference: Jacob (1986),0.25
FC(F)(F)C(F)(F)C(F)(F)C(F)(F)C(F)(F)C(F)(F)F [tetradecafluorohexane],Henry solubility constant Hcp,reference: Brockbank (2013),9.3e-09
CS(C)=O [dimethylsulfoxide],Henry solubility constant Hcp,reference: Betterton (1992),14
same,Henry solubility constant Hcp,reference: Brockbank (2013),8000
same,Henry solubility constant Hcp,[1],980
same,Henry solubility constant Hcp,[2],980
same,Henry solubility constant Hcp,[3],980
same,Henry solubility constant Hcp,[4],980
FC(F)(F)C(F)(F)C(F)(F)C(F)(F)C(F)(F)C(F)(F)C(F)(F)F [hexadecafluoroheptane],Henry solubility constant Hcp,reference: Brockbank (2013),3e-09
"CCOC(=O)CC(=O)OCC [propanedioic acid, diethyl ester]",Henry solubility constant Hcp,reference: Brockbank (2013),3.9
C#CC(C)(C)NC(=O)c1cc(Cl)cc(Cl)c1 [propyzamide],Henry solubility constant Hcp,[6],0.052
CC(CCl)OC(C)CCl (stereo unspecified) [bis-(2-chloroisopropyl) ether],Henry solubility constant Hcp,reference: Goldstein (1982),0.065 and 0.064
CCC(C)Br (stereo unspecified) [2-bromobutane],Henry solubility constant Hcp,reference: Brockbank (2013),0.00088
C#CCCCCC [1-heptyne],Henry solubility constant Hcp,reference: Brockbank (2013),0.00018
CN [methanamine],Henry solubility constant Hcp,[1],0.89
same,Henry solubility constant Hcp,[2],0.89
C=CCl [chloroethene],Henry solubility constant Hcp,reference: Brockbank (2013),0.00043
same,Henry solubility constant Hcp,[1],0.00038
same,Henry solubility constant Hcp,[2],0.00038
CC(C)N(C(=O)CCl)c1ccccc1 [propachlor],Henry solubility constant Hcp,[6],0.9
Cc1ccc([N+](=O)[O-])cc1 [4-nitrotoluene],Henry solubility constant Hcp,reference: Brockbank (2013),0.89
same,Henry solubility constant Hcp,reference: Goldstein (1982),0.16
[Cl][Hg][Cl] [mercury dichloride],Henry solubility constant Hcp,reference: Kanefke (2008),13000
same,Henry solubility constant Hcp,reference: Lindqvist and Rodhe (1985),14000
same,Henry solubility constant Hcp,reference: Shon et al. (2005),240000
same,Henry solubility constant Hcp,reference: WHO (1990),14000
CC(=O)CF [1-fluoro-2-propanone],Henry solubility constant Hcp,[1],0.46
same,Henry solubility constant Hcp,[2],0.46
CCC(C)CO (stereo unspecified) [2-methyl-1-butanol],Henry solubility constant Hcp,reference: Brockbank (2013),0.76
C=CC#N [2-propenenitrile],Henry solubility constant Hcp,reference: Brockbank (2013),0.1
same,Henry solubility constant Hcp,reference: Goldstein (1982),0.11
same,Henry solubility constant Hcp,reference: Mackay et al. (1995),0.11
FC(F)(F)Cl [chlorotrifluoromethane],Henry solubility constant Hcp,[1],9.9e-06
same,Henry solubility constant Hcp,[2],9.9e-06
same,Henry solubility constant Hcp,[4],9.9e-06
ClC(Cl)(Cl)Cl [tetrachloromethane],Henry solubility constant Hcp,reference: Brockbank (2013),0.00035
same,Henry solubility constant Hcp,[1],0.00036
same,Henry solubility constant Hcp,[2],0.00036
same,Henry solubility constant Hcp,reference: Dilling (1977),0.00046
same,Henry solubility constant Hcp,reference: Goldstein (1982),0.00033
same,Henry solubility constant Hcp,reference: Harrison et al. (1993),0.00038 and 0.00021
same,Henry solubility constant Hcp,reference: Liss and Slater (1974),0.00037
same,Henry solubility constant Hcp,[3],0.00034
same,Henry solubility constant Hcp,[4],0.00034
CCC(C)(C)OC [2-methoxy-2-methylbutane],Henry solubility constant Hcp,reference: Brockbank (2013),0.0097
"O=COCC(F)(F)F [2,2,2-trifluoroethyl methanoate]",Henry solubility constant Hcp,[1],0.0054
same,Henry solubility constant Hcp,[2],0.0054
same,Henry solubility constant Hcp,[4],0.0054
CCCCCCCCC [nonane],Henry solubility constant Hcp,reference: Brockbank (2013),2.3e-06
[Br][Hg][Br] [mercury dibromide],Henry solubility constant Hcp,reference: Kanefke (2008),960
CCC(C)O (stereo unspecified) [2-butanol],Henry solubility constant Hcp,reference: Brockbank (2013),0.95
same,Henry solubility constant Hcp,[1],1.1
same,Henry solubility constant Hcp,[2],1.1
same,Henry solubility constant Hcp,[5],1
same,Henry solubility constant Hcp,[3],1.1
same,Henry solubility constant Hcp,[4],1.1
O=C1c2ccccc2C(=O)N1SC(Cl)(Cl)Cl [folpet],Henry solubility constant Hcp,[6],0.026
Cc1cccc2ccccc12 [1-methylnaphthalene],Henry solubility constant Hcp,reference: Brockbank (2013),0.02
same,Henry solubility constant Hcp,[5],0.022
"ClC1C(Cl)C(Cl)C(Cl)C(Cl)C1Cl (stereo not drawn) [α-1,2,3,4,5,6-hexachlorocyclohexane]",Henry solubility constant Hcp,reference: Xiao et al. (2004),1.5 and 1.4
"Cc1cccc(C)c1 [1,3-dimethylbenzene]",Henry solubility constant Hcp,reference: Brockbank (2013),0.0015
"CC(C)(C)OC=O [(1,1-dimethylethyl)-methanoate]",Henry solubility constant Hcp,reference: Brockbank (2013),0.014
Cc1ccc(NC(=O)N(C)C)cc1Cl [chlortoluron],Henry solubility constant Hcp,[6],190
CCC(CC)Nc1c([N+](=O)[O-])cc(C)c(C)c1[N+](=O)[O-] [penoxaline],Henry solubility constant Hcp,[6],0.0026
CNC(=O)ON=C(SC)C(=O)N(C)C [oxamyl],Henry solubility constant Hcp,[6],38
C=CCSC [allyl methyl sulfide],Henry solubility constant Hcp,[1],0.0042
same,Henry solubility constant Hcp,[2],0.0042
C1=CCCC1 [cyclopentene],Henry solubility constant Hcp,reference: Brockbank (2013),0.0002
"CC(=O)C(F)(F)F [1,1,1-trifluoro-2-propanone]",Henry solubility constant Hcp,[1],1.4
same,Henry solubility constant Hcp,[2],1.4
same,Henry solubility constant Hcp,[4],1.4
CS [methanethiol],Henry solubility constant Hcp,[1],0.0038
same,Henry solubility constant Hcp,[2],0.0038
same,Henry solubility constant Hcp,reference: Goldstein (1982),0.0026
same,Henry solubility constant Hcp,[3],0.0038
same,Henry solubility constant Hcp,[4],0.0038
"N#Cc1c(Cl)c(Cl)c(Cl)c(C#N)c1Cl [2,4,5,6-tetrachloro-1,3-dicyanobenzene]",Henry solubility constant Hcp,reference: MacBean (2012b),39
CSc1nc(NC(C)C)nc(NC(C)C)n1 [prometryn],Henry solubility constant Hcp,[6],20
"OCC(F)(F)C(F)F [2,2,3,3-tetrafluoro-1-propanol]",Henry solubility constant Hcp,[1],1.4
same,Henry solubility constant Hcp,[2],1.4
same,Henry solubility constant Hcp,[4],1.4
Fc1ccccc1 [fluorobenzene],Henry solubility constant Hcp,reference: Brockbank (2013),0.0015
c1ccc(Oc2ccccc2)cc1 [diphenyl ether],Henry solubility constant Hcp,reference: Brockbank (2013),0.019
O=C1C2CC=CCC2C(=O)N1SC(Cl)(Cl)Cl (stereo unspecified) [captan],Henry solubility constant Hcp,[6],0.016
CF [fluoromethane],Henry solubility constant Hcp,reference: Brockbank (2013),0.00062
same,Henry solubility constant Hcp,[1],0.00061
same,Henry solubility constant Hcp,[2],0.00061
same,Henry solubility constant Hcp,[3],0.00061
same,Henry solubility constant Hcp,[4],0.00061
CCCCOC(=O)c1ccccc1C(=O)OCCCC [dibutyl phthalate],Henry solubility constant Hcp,reference: Brockbank (2013),11
same,Henry solubility constant Hcp,reference: McCarty (1980),0.16
C[Si](Cn1cncn1)(c1ccc(F)cc1)c1ccc(F)cc1 [flusilazole],Henry solubility constant Hcp,[6],27
